The source of these data is paper PMC11557314 (Frontiers in Pharmacology, 2024).

For orientation: Ki means the equilibrium dissociation constant of an inhibitor or competing ligand from its target. The term Emax denotes the size of the effect at its maximum, as opposed to the concentration needed. A word on the EC50: it is the concentration that produces a half-maximal response.

Read-outs that look alike come from different tables or passages of the source. Where no end group is shown, it is not given here. [ ]: non-standard residue; d: D form. βAla = NCCC(=O)O

Test [1] addresses T1, hKOPr (Homo sapiens, UniProt P41145). Format: binding. Conditions: for Ki: read-out: Ki hKOPr.
The next test deals with hMOPr (Homo sapiens, UniProt P35372). Description: Competitive radio binding assay with [3H]-DAMGO on hMOPr-CHO cell membranes. Conditions: read-out: Ki hMOPr; [3H]-DAMGO 1 nM, 60 min 25°C; mean ± SEM.
hMOPr, sequence (P35372 whole entry): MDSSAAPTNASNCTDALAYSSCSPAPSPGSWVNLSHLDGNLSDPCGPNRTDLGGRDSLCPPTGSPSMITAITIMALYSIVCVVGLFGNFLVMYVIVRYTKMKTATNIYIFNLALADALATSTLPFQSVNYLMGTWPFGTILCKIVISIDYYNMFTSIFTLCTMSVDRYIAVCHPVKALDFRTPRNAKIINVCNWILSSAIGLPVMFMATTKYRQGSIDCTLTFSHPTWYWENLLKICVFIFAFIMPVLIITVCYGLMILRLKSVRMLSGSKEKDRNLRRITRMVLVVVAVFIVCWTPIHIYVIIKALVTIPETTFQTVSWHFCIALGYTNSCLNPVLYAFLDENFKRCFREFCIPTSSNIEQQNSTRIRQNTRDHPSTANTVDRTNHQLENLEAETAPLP
Test [2] has as its target T2, hDOPr (Homo sapiens, UniProt P41143). Description: Competitive radio binding assay with [3H]-diprenorphine on hDOPr-CHO cell membranes.
The target of test [3] is T1, hKOPr. Description: biochemical. The settings on record: for EC50: read-out: Potency at hKOPr EC50.
In test [4] the test system is hKOPr. Details: method as in Bedini et al., 2020. The settings on record: result in words; ref Bedini et al., 2020; cited from earlier work.
The target of test [5] is T2, hDOPr. Description: [35S]GTPγS functional assay on hDOPr-CHO cell membranes. Format: biochemical. The procedure: CHO cells stably transfected with human KOPr, MOPr, and DOPr (hKOPr-CHO, hMOPr-CHO, and hDOPr-CHO, respectively) were provided by Prof. Liu-Chen (Temple University, Philadelphia, United States). The cells were grown in Gibco™ Dulbecco’s minimal essential medium (DMEM) for hKOPr-CHO or Gibco™ DMEM/F-12 for hMOPr and hDOPr. Both media were supplemented with 10% FBS (Gibco™), GlutaMAX (100 μg/mL; Gibco™), penicillin/streptomycin (100 μg/mL; Gibco™), and geneticin (G418, 400 μg/mL; Gibco™). HEK 293 cells were grown in high-glucose DMEM supplemented with 10% FBS (Gibco™), GlutaMAX (100 μg/mL; Gibco™), and penicillin/streptomycin (100 μg/mL; Gibco™). Cell cultures were maintained in a Heracell™ 150i CO2 incubator at 37°C and 5.0% CO2.
Functional assays were conducted on hKOPr-CHO, hMOPr-CHO, and hDOPr-CHO cell membranes (see above). The membranes were prepared in a buffer containing 20 mM HEPES, 10 μM GDP, cell membrane (10–30 μg), and 0.05 nM [^35S]GTPγS. The buffer containing the cell membranes was incubated with an increasing concentration of the test peptide diluted in 1 × HEPES, pH 7.4, in a total volume of 1 mL, for 60 min at 25°C. The peptide solutions were replaced by diluents for untreated controls. Non-specific binding was determined using unlabeled 10 μM GTPγS. Samples were rapidly washed three times with Tris-HCl and filtered through glass fiber filters (GF/B Whatman). The bound radioactivity was measured by liquid scintillation (Carl Roth GmbH, Karlsruhe, Germany) counting on a Packard 1600 TR Tri-Carb Beta counter (Canberra, Belgium).
(In general: GTPγS resists hydrolysis and so accumulates on activated G proteins.)

Test [6] has as its target T1, hKOPr. Description: cell-based. Format: cell-based. Conditions: HEK293, read-out: β-Arrestin recruitment, efficacy at hKOPr Emax.
Test [7] relates to hKOPr. Description: Biased factor calculation from GTPγS and PRESTO-Tango data. Details: species or system human. The settings on record: G-protein vs β-arrestin, DynA as reference; below 1 = β-arrestin bias. The text has this: To perform biased factor analyses, we followed the step-by-step protocol described by [Nagi and Pineyro (2016)]. In short, curve fitting was used to calculate τ and Ka values for G-protein and β-arrestin pathway activation. Log(τ/Ka) ratios were subtracted by log(τ/Ka) of DynA as the reference to yield ΔLog(τ/Ka) values for each peptide. In a final step for each peptide, ΔLog (τ/Ka) values for G-protein pathway activation were subtracted from ΔLog(τ/Ka) values for β-arrestin pathway activation and vice versa to calculate ΔΔLog(τ/Ka). The biased factor is yielded by delogging ΔΔLog (τ/Ka).
To confidently identify a G-protein-biased peptide of interest, it is essential to keep in mind that the responses we collected through GTPγS and PRESTO-Tango assay are not solely determined by drug signaling properties but also by the way the cell and different assays “perceive” the generation of this response. These different “perceptions” of the pharmacological stimulus may themselves be responsible for an imbalance among signals from different pathways. To avoid this, and to be able to correctly estimate whether a peptide is indeed biased, we applied the method proposed by [Kenakin et al. (2012)], that is based on the operational method proposed by [Black and Leff (1983)]. This method takes into consideration receptor occupation by the agonist, communication of the pharmacological stimulus to the system, and the processing of the stimulus by the system that produces the response.

Setting [8] is: read-out: Ki hDOPr, [3H]-diprenorphine 1 nM, 60 min 25°C, mean ± SEM.
Where [9] appears, read: read-out: Efficacy at hKOPr Emax.

T2 sequence (P41143 whole entry): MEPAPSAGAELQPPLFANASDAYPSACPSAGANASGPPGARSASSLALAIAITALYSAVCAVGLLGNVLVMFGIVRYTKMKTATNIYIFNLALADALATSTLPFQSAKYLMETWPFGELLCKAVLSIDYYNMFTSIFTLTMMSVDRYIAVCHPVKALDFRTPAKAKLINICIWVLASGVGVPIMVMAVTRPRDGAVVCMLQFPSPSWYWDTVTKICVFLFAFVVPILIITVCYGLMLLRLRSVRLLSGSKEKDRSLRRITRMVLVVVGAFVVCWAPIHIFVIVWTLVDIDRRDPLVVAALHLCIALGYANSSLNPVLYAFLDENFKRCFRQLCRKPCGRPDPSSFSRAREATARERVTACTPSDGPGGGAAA
T1 sequence (P41145 whole entry): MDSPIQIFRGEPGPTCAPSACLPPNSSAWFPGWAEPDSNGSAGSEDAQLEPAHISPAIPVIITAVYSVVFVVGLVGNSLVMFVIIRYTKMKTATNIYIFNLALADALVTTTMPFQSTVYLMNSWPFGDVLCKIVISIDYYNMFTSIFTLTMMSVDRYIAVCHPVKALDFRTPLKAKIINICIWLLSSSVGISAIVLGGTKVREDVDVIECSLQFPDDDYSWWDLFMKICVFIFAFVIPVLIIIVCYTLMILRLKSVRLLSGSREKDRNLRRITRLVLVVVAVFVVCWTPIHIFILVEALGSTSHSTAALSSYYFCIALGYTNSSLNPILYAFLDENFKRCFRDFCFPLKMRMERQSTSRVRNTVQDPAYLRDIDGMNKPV

YGAFLRRHFKVVT [DynB_G3A/Q8H]: at hKOPr [1], the “Selectivity DOPr/KOPr” value is recorded as 1,508, the “Selectivity MOPr/KOPr” value came out at 137 and the Ki turned out to be 0.3 nM. The Ki on hMOPr turned out to be 41.9 ± 1.3 nM. Besides, on hDOPr [2] (setting [8]), the Ki was 460 ± 44.2 nM. In addition, on hKOPr [3], the “agonist category at hKOPr (GTPγS)” value is recorded as “partial agonists” and the EC50 came out at 6.77 ± 0.82 nM. The Emax on hKOPr [3] (setting [9]) turned out to be 74.9 ± 1.6%.

Regarding YGMFLRRQFKVVT [DynB_G3M], at hKOPr [1], the “Selectivity DOPr/KOPr” value is given as 141, the “Selectivity MOPr/KOPr” value is on record as 193 and the Ki was 0.61 nM. Also, the Ki at hMOPr stood at 117 ± 6.9 nM. Also, the Ki on hDOPr [2] (setting [8]) is 85.3 ± 16.4 nM. Also, at hKOPr [3], the “agonist category at hKOPr (GTPγS)” value is “partial agonists” and the EC50 turned out to be 14.1 ± 4.17 nM. For the same molecule, the Emax at hKOPr [3] (setting [9]) is 54.5 ± 1.8%.

Take YGGFLRRHFKVVT [DynB_Q8H]: the “Selectivity DOPr/KOPr” value on hKOPr [1] is given as 507. Moreover, the “Selectivity MOPr/KOPr” value on hKOPr [1] turned out to be 36. The Ki at hKOPr [1] came to 0.21 nM; on hMOPr it was 7.7 ± 1.4 nM; on hDOPr [2] (setting [8]), 106 ± 17.1 nM. Also, the Emax at hKOPr [3] (setting [9]) was found to be 111.5 ± 0.9%. Further, at hKOPr [3], the EC50 amounted to 2.25 ± 0.47 nM.

For YGAFSRRQFKVVT [DynB_G3A/L5S], on hKOPr [1], the “Selectivity DOPr/KOPr” value is 2,195, the “Selectivity MOPr/KOPr” value worked out at 57 and the Ki was 1.73 nM. Also, the Ki at hMOPr is 98.3 ± 5.9 nM. In addition, at hDOPr [2] (setting [8]), the inhibition constant Ki was 3790 nM. Besides, at hKOPr [3], the “decrease of potency compared to DynB_WT” value is “more than 20 fold”, the “potency for hKOPr as compared to DynB (GTPγS)” value is “strongly reduced potency” and the EC50 is 116 ± 11.2 nM. In addition, on hKOPr [3] (setting [9]), the maximal effect (Emax) was 92.5 ± 5.7%.

As for YGGFLRRAFKVVT [DynB_Q8A], on hKOPr [3] (setting [9]), the Emax was determined as 125 ± 12.3%.

With YGMFSRRQFKVVT [DynB_G3M/L5S], at hKOPr [1], the “Selectivity DOPr/KOPr” value is 1,115, the “Selectivity MOPr/KOPr” value was 40 and the inhibitory constant (Ki) came out at 7.24 nM. Also, the Ki at hMOPr worked out at 290 ± 17.9 nM. For the same molecule, at hDOPr [2] (setting [8]), the Ki is 8080 nM. At hKOPr [3], the “agonist category at hKOPr (GTPγS)” value is recorded as “partial agonists”, the “potency for hKOPr as compared to DynB (GTPγS)” value is “strongly reduced potency” and the EC50 was determined as 170 ± 23.7 nM. Besides, on hKOPr [3] (setting [9]), the Emax came out at 52.6 ± 1.6%.

For YGMFLRRHFKVVT [DynB_G3M/Q8H], at hKOPr [1], the “Selectivity DOPr/KOPr” value was 459, the “Selectivity MOPr/KOPr” value is 268 and the Ki worked out at 0.36 nM. The Ki at hMOPr amounted to 97.1 ± 15.8 nM. In addition, on hDOPr [2] (setting [8]), the Ki was determined as 167 ± 19 nM. At hKOPr [3], the “agonist category at hKOPr (GTPγS)” value was “partial agonists” and the EC50 is 5.43 ± 0.53 nM. The Emax at hKOPr [3] (setting [9]) amounted to 42.1 ± 1.3%.

Consider YGAFLRRQFKVVT [DynB_G3A], for which, on hKOPr [1], the “Selectivity DOPr/KOPr” value is recorded as 149, the “Selectivity MOPr/KOPr” value is recorded as 39 and the Ki came to 2.13 nM. For the same molecule, the Ki at hMOPr came out at 82.3 ± 7.9 nM. Further, the Ki on hDOPr [2] (setting [8]) came to 317 ± 34.1 nM. Also, the Emax on hKOPr [3] (setting [9]) was 83.4 ± 5.5%. The EC50 on hKOPr [3] came to 27.9 ± 8.72 nM.

As to YGGFLRRQFAVVT [DynB_K10 A], the Emax at hKOPr [3] (setting [9]) was 132 ± 3.9%.

As for YGAFLRRQFAVVT [DynB_G3A/K10 A], on hKOPr [1], the “Selectivity DOPr/KOPr” value is 317, the “Selectivity MOPr/KOPr” value was 58 and the Ki turned out to be 1.57 nM. Further, the Ki on hMOPr was found to be 90.4 ± 7.6 nM. Moreover, the Ki at hDOPr [2] (setting [8]) worked out at 497 ± 105 nM. On hKOPr [3] (setting [9]), the Emax worked out at 84 ± 3.6%. The EC50 at hKOPr [3] stood at 16.7 ± 2.45 nM.

Regarding cyclo(FG[βAla][dW]) [LOR17], the “G-protein bias at the hKOPr” value in the test with hKOPr [4] is on record as “strong G-protein bias”.

Consider FGGFLRRQFKVVT [DynB_Y1F], for which, at hKOPr [1], the “Selectivity DOPr/KOPr” value stood at 44 and the Ki worked out at 37.3 nM. In addition, the Ki at hMOPr was found to be 217 ± 13.5 nM. Besides, the Ki at hDOPr [2] (setting [8]) came to 1620 nM. In addition, at hKOPr [3], the “potency for hKOPr as compared to DynB (GTPγS)” value is “strongly reduced potency” and the EC50 stood at 393 ± 47.3 nM. For the same molecule, the Emax on hKOPr [3] (setting [9]) worked out at 110 ± 5.5%.

At hDOPr [2], `CC(C)C[C@H](NC(=O)[C@H](Cc1ccccc1)NC(=O)CNC(=O)CNC(=O)[C@@H](N)Cc1ccc(O)cc1)C(=O)N[C@@H](CCCNC(=N)N)C(=O)N[C@@H](CCCNC(=N)N)C(=O)N[C@@H](CCC(N)=O)C(=O)N[C@@H](Cc1ccccc1)C(=O)N[C@@H](CCCCN)C(=O)N[C@H](C(=O)N[C@H](C(=O)N[C@H](C(=O)O)[C@@H](C)O)C(C)C)C(C)C` [DynB_WT, dynorphin B, reference compound] came in with a Ki of 80.2 ± 6.4 nM. Further, on hKOPr [3], the “hKOPr % stim, stimulation of [35S]GTPγS binding” value came to 120 ± 1.5%; the “preference for hKOPr over hDOPr (GTPγS)” value worked out at 12 fold; the “preference for hKOPr over hMOPr (GTPγS)” value is 6 fold. In addition, the Emax at hKOPr [3] (setting [9]) came out at 120 ± 1.5%. In addition, on hKOPr [3] (read-out: Emax higher than DynA), the Emax was determined as 20%. On hDOPr [5], this molecule yielded an EC50 of 59.3 ± 6.7 nM. Moreover, the “hDOPr % stim, stimulation of [35S]GTPγS binding” value on hDOPr [5] (Table 3, normalized to DynA, mean ± SEM) came to 104 ± 3.6%. Further, on hKOPr [6], the Emax is 111 ± 5.3%. In addition, the “biased factor at hKOPr” value in the test with hKOPr [7] is 0.8 ± 0.2.
